Results reported in PubChem BioAssay AID2068 (Sanford-Burnham Center for Chemical Genomics, 2009).

Biological target: Tyrosine-protein phosphatase non-receptor type 7 (Homo sapiens) (UniProt P35236)
Test: redox-active compounds inhibiting HePTP phosphatase – biochemical, fluorescence, mechanism study (AID 2068)
Conditions: recombinant HePTP, fluorescent phosphatase assay, redox-state modulation

Chain of Tyrosine-protein phosphatase non-receptor type 7 (Homo sapiens) (P35236 whole entry, looked up): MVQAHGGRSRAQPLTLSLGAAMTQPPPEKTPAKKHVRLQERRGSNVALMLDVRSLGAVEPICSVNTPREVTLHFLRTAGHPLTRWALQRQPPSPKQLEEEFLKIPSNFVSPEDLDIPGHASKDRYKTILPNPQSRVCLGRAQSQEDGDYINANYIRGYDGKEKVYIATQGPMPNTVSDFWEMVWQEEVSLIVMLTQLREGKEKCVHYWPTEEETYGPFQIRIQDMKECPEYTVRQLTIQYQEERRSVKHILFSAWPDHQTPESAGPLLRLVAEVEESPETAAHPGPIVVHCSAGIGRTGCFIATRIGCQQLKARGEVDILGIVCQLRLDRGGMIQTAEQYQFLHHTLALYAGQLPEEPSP

Question: How did the IC50 turn out when `O=C(O)CSc1cc(C(=O)c2ccccc2O)cn2c(=O)c3c(-c4ccccc4)csc3nc12` was run?
Answer: Its IC50 is 1.75 µM.
